Consider 3 compounds from US20090233299A1, “Physiogenomic Method for Predicting Statin Injury to Muscle and Muscle Side Effects” (GENOMAS, INC., priority 2005, published 2009).

For series [1] the following is noted: human, in vivo.
For series [2] the following is noted: deaths associated with the drug before its withdrawal in August 2001; cited from earlier work.

As for `CC(C)c1c(C(=O)Nc2ccccc2)c(-c2ccccc2)c(-c2ccc(F)cc2)n1CC[C@@H](O)C[C@@H](O)CC(=O)O` [atorvastatin], the “Median CK” value in series [1] turned out to be 84 u/l.

In the case of `CCC(C)(C)C(=O)O[C@H]1C[C@@H](C)C=C2C=C[C@H](C)[C@H](CC[C@@H]3C[C@@H](O)CC(=O)O3)[C@H]21` [simvastatin], the “Median CK” value in series [1] is recorded as 77 u/l.

`COCc1c(C(C)C)nc(C(C)C)c(/C=C/[C@@H](O)C[C@@H](O)CC(=O)O)c1-c1ccc(F)cc1` [cerivastatin]: the rhabdomyolysis-related deaths result in series [2] is listed as “approx. 100”.
